Assay [1] deals with Estrogen receptor (Homo sapiens) (UniProt Q92731+P03372).
Description: Estrogen receptor (ER) binding affinity
A further assay deals with MCF7. In words: cells. The following applies: Homo sapiens.

The values that follow come from ChEMBL document CHEMBL1130222, “Induction of the estrogen specific mitogenic response of MCF-7 cells by selected analogues of estradiol-17 beta: a 3D QSAR study” (J Med Chem, 1997).

Each structure is given as a SMILES string.

Description for MCF7: Growth response in cultures of MCF-7 (human breast cancer cell line) cells

One may read the EC50 as the concentration needed to bring the measured effect to its halfway point. Read a low EC50 as an effect from little substance. In assay [1], `C[C@]12CC[C@@H]3c4cc([N+](=O)[O-])c(O)cc4CCC3[C@@H]1CC[C@@H]2O` (single isomer, unassigned) returned a Ka of 3.7e+06 M⁻¹. In the assay with MCF7, this compound showed an EC50 of 33.5 nM.

In the case of `C[C@]12CC[C@@H]3c4ccc(O)cc4CCC3[C@@H]1C[C@@H](O)C2` (single isomer, unassigned), in assay [1], the Ka amounted to 2.97e+09 M⁻¹. This compound also returned an EC50 in the assay with MCF7 of 0.237 nM.

With `C[C@]12CC[C@@H]3c4cc(O)ccc4CCC3[C@@H]1CC[C@@H]2O` (single isomer, unassigned), in assay [1], the Ka worked out at 2.6e+09 M⁻¹. For the same compound, it took 0.033 nM to reach a half-maximal effect with MCF7 (EC50).

As for `C[C@]12CCc3c(ccc4cc(O)ccc34)[C@@H]1CC[C@@H]2O`, the Ka in assay [1] came out at 1.52e+09 M⁻¹. The compound further had an EC50 in the assay with MCF7 of 0.0125 nM.

In assay [1], `C[C@]12CC[C@@H]3c4ccc(O)cc4C[C@@H](O)C3[C@@H]1CC[C@@H]2O` (single isomer, unassigned) gave a Ka of 6.3e+07 M⁻¹. For the same compound, in the assay with MCF7, the EC50 is 0.153 nM.

With `C[C@@]12CCC[C@H]1C1CCc3ccccc3[C@H]1CC2` (single isomer, unassigned), in assay [1], the Ka is below 1.8e+06 M⁻¹. The same compound showed a concentration for a half-maximal effect (EC50) with MCF7 of 201 nM.

On to `C[C@]12CC[C@H]3C(=CCc4cc(O)ccc43)[C@@H]1CC[C@@H]2O`, for which the EC50 in the assay with MCF7 came out at 0.00154 nM.

For `C[C@]12CC[C@@H]3c4cc(N)c(O)cc4CCC3[C@@H]1CC[C@@H]2O` (single isomer, unassigned), in assay [1], the Ka was found to be 1.33e+08 M⁻¹. The compound further came in with an EC50 with MCF7 of 0.558 nM.

Take `C[C@]12CC[C@@H]3c4ccc(O)cc4CCC3[C@@H]1C[C@@H](O)[C@@H]2O` (single isomer, unassigned) [ESTRIOL]: a half-maximal effect with MCF7 (EC50) was put at 0.0483 nM.

Take `C[C@]12CC[C@@H]3c4cc(I)ccc4CCC3[C@@H]1CC[C@@H]2O` (single isomer, unassigned): in assay [1], the Ka came out at 3.33e+06 M⁻¹. Moreover, in the assay on MCF7, the EC50 worked out at 1.7 nM.

Turning to `C[C@]12CC[C@@H]3c4ccc(O)c(N)c4CCC3[C@@H]1CC[C@@H]2O` (single isomer, unassigned), the Ka in assay [1] stood at 2.11e+08 M⁻¹. For the same compound, the EC50 in the assay on MCF7 is 0.346 nM.

`C[C@]12CC[C@@H]3c4cccc(O)c4CCC3[C@@H]1CC[C@@H]2O` (single isomer, unassigned): in assay [1], the Ka came to 2.5e+08 M⁻¹. Further, the EC50 in the assay with MCF7 came to 4.76 nM.

For the compound `C[C@]12CC[C@@H]3c4ccc(O)cc4CC(=O)C3[C@@H]1CC[C@@H]2O` (single isomer, unassigned), the Ka in assay [1] was found to be 3.39e+09 M⁻¹. The compound also gave an EC50 in the assay with MCF7 of 0.016 nM.

In the case of `C[C@]12CC[C@@H]3c4ccc(O)cc4[C@H](O)CC3[C@@H]1CC[C@@H]2O` (single isomer, unassigned), the Ka in assay [1] came out at 7e+07 M⁻¹. Moreover, a half-maximal response with MCF7 (EC50) required 0.0571 nM.

Take `C[C@]12CC(=O)[C@@H]3c4ccc(O)cc4CCC3[C@@H]1CC[C@@H]2O` (single isomer, unassigned): the Ka in assay [1] worked out at 3.33e+06 M⁻¹. For the same compound, the midpoint of the response in the assay on MCF7, the EC50, lay at 8.97 nM.

`C[C@]12CC[C@@H]3c4cccc(I)c4CCC3[C@@H]1CC[C@@H]2O` (single isomer, unassigned): the Ka in assay [1] was found to be 4.44e+06 M⁻¹. The same compound yielded an EC50 with MCF7 of 1.67 nM.

Regarding `C[C@]12C[C@@H](O)[C@@H]3c4ccc(O)cc4CCC3[C@@H]1CC[C@@H]2O` (single isomer, unassigned), the Ka in assay [1] came to 1.15e+07 M⁻¹. Moreover, it took 0.0365 nM to reach a half-maximal effect in the assay on MCF7 (EC50).

As to `C[C@]12CC[C@@H]3c4ccccc4CCC3[C@@H]1CC[C@@H]2O` (single isomer, unassigned), in assay [1], the Ka amounted to 4.1e+08 M⁻¹. This compound also registered an EC50 with MCF7 of 0.316 nM.

In turn, `C[C@]12CC[C@@H]3c4ccc(O)cc4C=C[C@@H]3[C@@H]1CC[C@@H]2O` registered an EC50 in the assay with MCF7 of 0.00419 nM.

`C[C@]12CC[C@@H]3c4cc([N+](=O)[O-])ccc4CCC3[C@@H]1CC[C@@H]2O` (single isomer, unassigned) had a Ka in assay [1] below 1.85e+06 M⁻¹. Moreover, in the assay on MCF7, the EC50 amounted to 29.3 nM.

The compound `C[C@]12CC[C@@H]3c4cccc(N)c4CCC3[C@@H]1CC[C@@H]2O` (single isomer, unassigned) displayed a Ka in assay [1] of 2.15e+07 M⁻¹. This compound came in with an EC50 with MCF7 of 2 nM.

Take `C[C@]12CC[C@@H]3c4ccc(O)cc4[C@@H](O)CC3[C@@H]1CC[C@@H]2O` (single isomer, unassigned): the Ka in assay [1] was found to be 8.88e+07 M⁻¹. The same compound had a half-maximal effective concentration (EC50) in the assay on MCF7 of 0.186 nM.

For the compound `C[C@]12C[C@H](O)[C@@H]3c4ccc(O)cc4CCC3[C@@H]1CC[C@@H]2O` (single isomer, unassigned), the Ka in assay [1] came to 6.22e+07 M⁻¹. The same compound returned a concentration for a half-maximal effect (EC50) with MCF7 of 0.0163 nM.

Consider `C[C@]12CC[C@@H]3c4c(O)cccc4CCC3[C@@H]1CC[C@@H]2O` (single isomer, unassigned), for which the Ka in assay [1] is 1.8e+07 M⁻¹. In the assay on MCF7, this compound came in with an EC50 of 1.59 nM.

With `C[C@]12CC[C@@H]3c4ccc(O)cc4C[C@H](O)C3[C@@H]1CC[C@@H]2O` (single isomer, unassigned), the Ka in assay [1] amounted to 3.66e+09 M⁻¹. In the assay on MCF7, this compound had an EC50 of 0.0122 nM.

As for `C[C@@]12CCC[C@H]1C1CCc3cc(O)ccc3[C@H]1CC2` (single isomer, unassigned), the Ka in assay [1] turned out to be 2.93e+09 M⁻¹. Besides, in the assay with MCF7, a half-maximal effect (EC50) was put at 0.118 nM.

On to `C[C@]12CC[C@@H]3c4ccc([N+](=O)[O-])cc4CCC3[C@@H]1CC[C@@H]2O` (single isomer, unassigned), for which the Ka in assay [1] is 7.77e+06 M⁻¹. In the assay with MCF7, this compound registered an EC50 of 2.16 nM.

With `C[C@]12CC[C@@H]3c4ccc(O)cc4C(=O)CC3[C@@H]1CC[C@@H]2O` (single isomer, unassigned), the Ka in assay [1] is 1.09e+09 M⁻¹. The compound further registered an EC50 with MCF7 of 0.00338 nM.

Take `C[C@]12CC[C@H]3[C@H](CC=C4C[C@@H](O)CC[C@@]43C)[C@@H]1CC[C@@H]2O`: the Ka in assay [1] was 2.7e+07 M⁻¹. In the assay on MCF7, this compound returned an EC50 of 1.41 nM.

In the case of `C[C@]12CC[C@@H]3c4ccc(N)cc4CCC3[C@@H]1CC[C@@H]2O` (single isomer, unassigned), the Ka in assay [1] was 2.78e+11 M⁻¹. Besides, in the assay with MCF7, the EC50 came out at 1.5 nM.

As for `C[C@]12CC[C@@H]3c4cccc([N+](=O)[O-])c4CCC3[C@@H]1CC[C@@H]2O` (single isomer, unassigned), the Ka in assay [1] is below 1.85e+06 M⁻¹. Also, the EC50 in the assay on MCF7 turned out to be 34.2 nM.

In assay [1], `C[C@]12CC[C@@H]3c4c(cccc4[N+](=O)[O-])CCC3[C@@H]1CC[C@@H]2O` (single isomer, unassigned) had a Ka below 1.85e+06 M⁻¹. The EC50 with MCF7 was 60.4 nM.

As for `C[C@]12CC[C@H](O)C[C@@H]1CCC1[C@@H]2CC[C@]2(C)[C@@H](O)CC[C@@H]12` (single isomer, unassigned) [ANDROSTANEDIOL], the Ka in assay [1] stood at 1.8e+07 M⁻¹. Also, the EC50 in the assay with MCF7 was 4.66 nM.

In assay [1], `C[C@]12CC[C@@H]3c4cc(N)ccc4CCC3[C@@H]1CC[C@@H]2O` (single isomer, unassigned) yielded a Ka of 1.45e+08 M⁻¹. Moreover, the EC50 with MCF7 was found to be 0.127 nM.

`C[C@]12CC[C@@H](O)C[C@@H]1CCC1[C@@H]2CC[C@]2(C)[C@@H](O)CC[C@@H]12` (single isomer, unassigned) [ANDROSTANDIOL] displayed a Ka in assay [1] below 1.85e+06 M⁻¹. In the assay with MCF7, the EC50 was above 10000 nM.

In turn, `C[C@]12CC[C@@H]3c4c(N)cccc4CCC3[C@@H]1CC[C@@H]2O` (single isomer, unassigned) had a Ka in assay [1] below 1.85e+06 M⁻¹. The EC50 in the assay with MCF7 was determined as 28.4 nM.

The compound `C[C@]12CC[C@@H]3c4ccc(O)c([N+](=O)[O-])c4CCC3[C@@H]1CC[C@@H]2O` (single isomer, unassigned) registered a Ka in assay [1] of 1.44e+08 M⁻¹. The EC50 with MCF7 came to 0.9 nM.

For `C[C@]12CC[C@@H]3c4ccc(I)cc4CCC3[C@@H]1CC[C@@H]2O` (single isomer, unassigned), the Ka in assay [1] worked out at 1.96e+07 M⁻¹. Further, it took 0.174 nM to reach a half-maximal effect in the assay on MCF7 (EC50).
